Results on 1 compound are retold here after article PMC3824017 (The Journal of Cell Biology, 2013).

SMILES strings stand for the structures.

Experiment [1] addresses T1, erlin-1 (Homo sapiens, UniProt O75477).
T1 sequence (O75477 1-348): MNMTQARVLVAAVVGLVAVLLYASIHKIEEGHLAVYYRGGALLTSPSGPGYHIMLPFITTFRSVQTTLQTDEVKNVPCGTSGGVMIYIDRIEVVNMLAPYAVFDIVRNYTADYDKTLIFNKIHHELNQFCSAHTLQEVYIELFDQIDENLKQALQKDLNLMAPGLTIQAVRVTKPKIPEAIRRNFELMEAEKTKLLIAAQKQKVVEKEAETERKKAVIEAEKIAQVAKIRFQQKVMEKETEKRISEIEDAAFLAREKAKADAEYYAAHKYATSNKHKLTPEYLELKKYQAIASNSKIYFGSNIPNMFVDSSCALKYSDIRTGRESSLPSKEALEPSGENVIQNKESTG
The format is binding.

Experiment [2] concerns the target T2, erlin-2 (native erlin-1/2 complex) (Mus musculus, UniProt Q8BFZ9+Q91X78).
T2 sequence (Q8BFZ9 1-340): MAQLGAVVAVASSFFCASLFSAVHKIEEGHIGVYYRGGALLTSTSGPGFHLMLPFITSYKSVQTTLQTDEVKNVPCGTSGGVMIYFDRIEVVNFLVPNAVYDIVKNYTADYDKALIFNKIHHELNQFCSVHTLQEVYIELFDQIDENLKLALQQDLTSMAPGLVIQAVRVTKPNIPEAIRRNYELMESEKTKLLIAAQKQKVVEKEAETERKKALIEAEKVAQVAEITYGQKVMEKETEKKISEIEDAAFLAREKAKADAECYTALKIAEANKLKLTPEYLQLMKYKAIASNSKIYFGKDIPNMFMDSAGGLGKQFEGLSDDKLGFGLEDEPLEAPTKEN
T2 sequence (Q91X78 1-348): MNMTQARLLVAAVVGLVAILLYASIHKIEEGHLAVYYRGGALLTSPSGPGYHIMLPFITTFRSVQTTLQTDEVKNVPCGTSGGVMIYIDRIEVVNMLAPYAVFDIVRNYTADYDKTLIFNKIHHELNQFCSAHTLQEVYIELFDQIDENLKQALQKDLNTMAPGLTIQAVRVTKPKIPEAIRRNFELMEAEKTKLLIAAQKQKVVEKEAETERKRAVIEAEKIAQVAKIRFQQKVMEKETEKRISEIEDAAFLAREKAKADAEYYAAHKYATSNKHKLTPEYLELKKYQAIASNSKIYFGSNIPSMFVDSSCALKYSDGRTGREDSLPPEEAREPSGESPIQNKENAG
The format is binding.

For the compound `CC(C)CCC[C@@H](C)[C@H]1CC[C@H]2[C@@H]3CC=C4C[C@@H](O)CC[C@]4(C)[C@H]3CC[C@]12C` [cholesterol], the Kd (as a rule, the free concentration of one partner at which half of the binding sites on the other are occupied at equilibrium, for simple one-to-one binding) was determined as 13.2 µM in experiment [1] and 13.4 µM in experiment [2].
